Laboratory results reported in the NIST ThermoML archive (doi:10.1021/je060283w).

Test: relative permittivity at zero frequency (dimensionless)
Settings: Parallel plate capacitor

COC [dimethyl ether]
Settings	relative permittivity at zero frequency
343.2 K, 33200 kPa, Liquid	4.84
353.1 K, 40 kPa, Gas	1.01
353.1 K, 100 kPa, Gas	1.012
353.1 K, 220 kPa, Gas	1.017
353.1 K, 480 kPa, Gas	1.03
353.1 K, 530 kPa, Gas	1.033
353.1 K, 580 kPa, Gas	1.036
353.1 K, 680 kPa, Gas	1.041
353.1 K, 780 kPa, Gas	1.047
353.1 K, 870 kPa, Gas	1.052
353.1 K, 970 kPa, Gas	1.058
353.1 K, 1070 kPa, Gas	1.064
353.1 K, 1180 kPa, Gas	1.071
353.1 K, 1270 kPa, Gas	1.078
353.1 K, 1340 kPa, Gas	1.082
353.1 K, 1440 kPa, Gas	1.09
353.1 K, 1540 kPa, Gas	1.098
353.1 K, 1700 kPa, Gas	1.109
353.1 K, 1890 kPa, Gas	1.128
353.1 K, 2150 kPa, Gas	1.178
353.1 K, 2200 kPa, Liquid	3.92
353.1 K, 4000 kPa, Liquid	3.98
353.1 K, 6400 kPa, Liquid	4.07
353.1 K, 8200 kPa, Liquid	4.13
353.1 K, 10200 kPa, Liquid	4.19
353.1 K, 12200 kPa, Liquid	4.24
353.1 K, 14200 kPa, Liquid	4.29
353.1 K, 16100 kPa, Liquid	4.33
353.1 K, 18200 kPa, Liquid	4.38
353.1 K, 20000 kPa, Liquid	4.42
353.1 K, 21800 kPa, Liquid	4.45
353.1 K, 24000 kPa, Liquid	4.49
353.1 K, 25800 kPa, Liquid	4.52
353.1 K, 27700 kPa, Liquid	4.55
353.1 K, 29800 kPa, Liquid	4.58
363.4 K, 850 kPa, Gas	1.048
363.4 K, 1050 kPa, Gas	1.059
363.4 K, 1200 kPa, Gas	1.068
363.4 K, 1410 kPa, Gas	1.081
363.4 K, 1580 kPa, Gas	1.092
363.4 K, 1750 kPa, Gas	1.104
363.4 K, 1890 kPa, Gas	1.116
363.4 K, 2070 kPa, Gas	1.131
363.4 K, 2280 kPa, Gas	1.15
363.4 K, 2800 kPa, Liquid	3.63
363.4 K, 4200 kPa, Liquid	3.71
363.4 K, 6200 kPa, Liquid	3.8
363.4 K, 8000 kPa, Liquid	3.88
363.4 K, 10200 kPa, Liquid	3.95
363.4 K, 12200 kPa, Liquid	4.01
363.4 K, 14200 kPa, Liquid	4.06
363.4 K, 16000 kPa, Liquid	4.11
363.4 K, 18000 kPa, Liquid	4.16
363.4 K, 20000 kPa, Liquid	4.2
363.4 K, 22000 kPa, Liquid	4.24
363.4 K, 24000 kPa, Liquid	4.28
363.4 K, 26000 kPa, Liquid	4.31
363.4 K, 28000 kPa, Liquid	4.35
363.4 K, 30500 kPa, Liquid	4.4
372.9 K, 3400 kPa, Liquid	3.38
372.9 K, 4200 kPa, Liquid	3.44
372.9 K, 6100 kPa, Liquid	3.57
372.9 K, 8300 kPa, Liquid	3.66
372.9 K, 10200 kPa, Liquid	3.73
372.9 K, 12200 kPa, Liquid	3.81
372.9 K, 14400 kPa, Liquid	3.88
372.9 K, 16200 kPa, Liquid	3.91
372.9 K, 18300 kPa, Liquid	3.96
372.9 K, 20000 kPa, Liquid	4
372.9 K, 22300 kPa, Liquid	4.05
372.9 K, 24100 kPa, Liquid	4.09
372.9 K, 26200 kPa, Liquid	4.14
372.9 K, 27800 kPa, Liquid	4.16
372.9 K, 29200 kPa, Liquid	4.18
382.9 K, 4000 kPa, Liquid	3.08
382.9 K, 6200 kPa, Liquid	3.31
382.9 K, 8100 kPa, Liquid	3.43
382.9 K, 10000 kPa, Liquid	3.53
382.9 K, 12300 kPa, Liquid	3.62
382.9 K, 14200 kPa, Liquid	3.68
382.9 K, 16100 kPa, Liquid	3.74
382.9 K, 18000 kPa, Liquid	3.79
382.9 K, 20000 kPa, Liquid	3.84
382.9 K, 22000 kPa, Liquid	3.89
382.9 K, 24000 kPa, Liquid	3.93
382.9 K, 26000 kPa, Liquid	3.97
382.9 K, 27900 kPa, Liquid	4.01
382.9 K, 30100 kPa, Liquid	4.05
393 K, 6200 kPa, Liquid	3.01
393 K, 8400 kPa, Liquid	3.21
393 K, 10000 kPa, Liquid	3.3
393 K, 12300 kPa, Liquid	3.4
393 K, 14200 kPa, Liquid	3.47
393 K, 16200 kPa, Liquid	3.54
393 K, 18200 kPa, Liquid	3.6
393 K, 20000 kPa, Liquid	3.65
393 K, 22000 kPa, Liquid	3.7
393 K, 24000 kPa, Liquid	3.75
393 K, 26000 kPa, Liquid	3.79
393 K, 27800 kPa, Liquid	3.83
393 K, 29500 kPa, Liquid	3.86
402.9 K, 6900 kPa, Fluid (supercritical or subcritical phases)	2.75
402.9 K, 8600 kPa, Fluid (supercritical or subcritical phases)	2.96
402.9 K, 10200 kPa, Fluid (supercritical or subcritical phases)	3.08
402.9 K, 12000 kPa, Fluid (supercritical or subcritical phases)	3.19
402.9 K, 14200 kPa, Fluid (supercritical or subcritical phases)	3.28
402.9 K, 16100 kPa, Fluid (supercritical or subcritical phases)	3.35
402.9 K, 18000 kPa, Fluid (supercritical or subcritical phases)	3.4
402.9 K, 20000 kPa, Fluid (supercritical or subcritical phases)	3.47
402.9 K, 21700 kPa, Fluid (supercritical or subcritical phases)	3.51
402.9 K, 23600 kPa, Fluid (supercritical or subcritical phases)	3.55
402.9 K, 25800 kPa, Fluid (supercritical or subcritical phases)	3.61
402.9 K, 27100 kPa, Fluid (supercritical or subcritical phases)	3.64
402.9 K, 29500 kPa, Fluid (supercritical or subcritical phases)	3.68
